Test results: patent publication US20220080026A1, “FORMULATIONS” (Sublimity Therapeutics Limited, priority 2013, published 2022)
Where a name gives a salt, the structure may show the parent alone.

Conditions: heated at 60-70° C.

solubility in the aqueous phase of the formulation: fully soluble
Compound: NNc1nncc2ccccc12 [Hydralazine HCl]
